Assay results reported in ChEMBL document CHEMBL5226330, “Synthesis of Oxazino[4,3-a]indoles and biological applications” (2021).

Organism: Mus musculus
Experiment: Antidepressant activity against […] Swiss albino mouse model assessed as […]
Assay type: functional

Compound: CNCCC1(C)OCCn2c1c(C)c1ccccc12.Cl (stereo not drawn)
- ED50: 0.5 mg/kg

Compound: Cc1c2n(c3ccccc13)CCOC2(C)CCN(C)C.Cl (stereo not drawn)
- ED50: 2 mg/kg

Compound: Cc1c2n(c3ccccc13)CCOC2(C)CCCN(C)C.Cl (stereo not drawn)
- ED50: 2.9 mg/kg
